Experimental data reported in patent US11738008B2, “N-methyl-D-aspartic acid receptor modulators” (Emory University, priority 2018, dated 2023).
Like-named read-outs stand apart in the source and are kept apart here.

Tests used:
[1] = target: serotonin transporter (Homo sapiens, UniProt P31645); experiment: NIMH PDSP radioligand binding, serotonin transporter; conditions: read-out: Radioligand binding in 10 μM compound (% control)
Description: (§1) The NIMH PDSP is Directed by Bryan L. Roth at the University of North Carolina at Chapel Hill and Project Officer Jamie Driscoll at NIMH, Bethesda Md., USA. Radioligand binding was measured in the presence of 10 μM 1180-420 and 1180-447. […] For experimental details please refer to the PDSP web site https://pdsp.unc.edu/ims/investigator/web/. Both 1180-420 and 1180-447 were also tested at AMPA, nicotinic acetylcholine, serotonin, GABA, and glycine ion channels using a two-electrode voltage clamp assay.
(§2) Receptor binding profiles of compound 1180-447 were generously provided by the National Institute of Mental Health's Psychoactive Drug Screening Program, Contract # HHSN-271-2013-00017-C(NIMH PDSP). The NIMH PDSP is directed by Bryan L. Roth at the University of North Carolina at Chapel Hill and Project Officer Jamie Driscoll at NIMH, Bethesda Md., USA. Radioligand binding was measured in the presence of 10 μM 1180-447. […] For experimental details please refer to the PDSP web site https://pdsp.unc.edu/ims/investigator/web/.
(§3) The NIMH PDSP is Directed by Bryan L. Roth at the University of North Carolina at Chapel Hill and Project Officer Jamie Driscoll at NIMH, Bethesda Md., USA. Radioligand binding was measured in the presence of 10 μM 1180-420. […] For experimental details please refer to the PDSP web site https://pdsp.unc.edu/ims/investigator/web/.

[2] = target: H3 (Homo sapiens, UniProt Q9Y5N1); experiment: NIMH PDSP radioligand binding, H3; conditions: read-out: Radioligand binding in 10 μM compound (% control)
Description: as §1, §2, §3

[3] = target: rat GluN1/GluN2D (Rattus norvegicus, UniProt Q62645); experiment: Two-electrode voltage clamp recordings in Xenopus laevis oocytes, potentiation of GluN1/GluN2D; assay type: cell-based
Description: (§4) Xenopus laevis oocytes were purchased unfertilized from Ecocyte (Austin, Tex.). The oocytes were injected with mRNA to express recombinant rat GluN1/GluN2A, GluN1/GluN2B, GluN1/GluN2C, and GluN1/GluN2D and two-electrode voltage clamp (TEVC) recordings were performed. Drs. S. Heinemann (Salk Institute), S. Nakanishi (Kyoto University), and P. Seeburg (University of Heidelberg) provided the cDNAs for rat GluN1-1a (GenBank accession numbers U11418 and U08261, referred to as GluN1 henceforth), GluN2A (D13211), GluN2B (U11419), GluN2C (M91563), and GluN2D (D13213). GluN2C and GluN2D were altered according to literature precedent. […] To prevent the current increase typically seen during experiments with oocytes expressing GluN1/GluN2A receptors, the oocytes were either injected with 20 nL of 100 mM K-BAPTA (potassium 1,2-bis(o-aminophenoxy)ethane-N,N,N,N-tetraacetic acid) or pretreated with 50 μM BAPTA-AM (1,2-bis(o-aminophenoxy)ethane-N,N,N,N-tetraacetic acid tetraacetoxymethyl ester) for 10 minutes.

[4] = target: rat GluN1/GluN2D (Rattus norvegicus, UniProt P35439+Q62645); experiment: as above; assay type: cell-based
Description: as §4

[5] = target: norepinephrine transporter (Homo sapiens, UniProt P23975); experiment: NIMH PDSP radioligand binding, norepinephrine transporter; conditions: read-out: Radioligand binding in 10 μM compound (% control)
Description: as §1, §2, §3

[6] = target: δ-opioid receptor (Homo sapiens, UniProt P41143); experiment: NIMH PDSP radioligand binding, δ-opioid receptor; conditions: read-out: Radioligand binding in 10 μM compound (% control)
Description: as §1, §2, §3

[7] = target: dopamine transporter (Homo sapiens, UniProt Q01959); experiment: NIMH PDSP radioligand binding, dopamine transporter; conditions: read-out: Radioligand binding in 10 μM compound (% control)
Description: as §1, §2, §3

[8] = target: T1, α1β2γ2-GABAA (Homo sapiens, UniProt P14867+P18507+P47870); experiment: Off-target two-electrode voltage clamp assay, α1β2γ2-GABAA; assay type: cell-based; conditions: 10 μM, mean ± SEM
T1 construct: expressed in transfected cells
Description: as §1

[9] = target: α1A (Homo sapiens, UniProt P35348); experiment: NIMH PDSP radioligand binding, α1A; conditions: read-out: Radioligand binding in 10 μM compound (% control)
Description: as §1, §2, §3

[10] = In vivo pharmacokinetics, plasma and brain, IP 10 mg/kg; parameters: species or system C57BL/6 mice; conditions: mouse; for AUC % Extrapolation / AUCINF / AUCLAST / t½terminal / Tmax / Cmax / AUC(0-inf) / AUC(0-t): mean; for max brain concentration / half-life: IP 10 mg/kg; for Kp / half-life / Tmax / Cmax / AUC(0-inf) / AUC(0-t): male; for Kp: C57BL/6, brain and plasma, IP 10 mg/kg fed, read-out: Ratio_AUCLAST (Brain/plasma); for half-life: C57BL/6, plasma, read-out: half-lives in plasma; for Tmax / Cmax / AUC(0-inf) / AUC(0-t): C57BL/6
Description: In vivo analysis of 1180-420 and 1180-447 for pharmacokinetic properties: In vivo analysis of 1180-420 and 1180-447 for pharmacokinetic properties was performed by Pharmaron (Irvine, Calif.). […] The mouse is placed head down at a 45-degree angle to facilitate blood removal. After perfusion, the brain ventricle is opened, and the brain is removed. […] The mixtures were then vortexed for 30 seconds and subsequently centrifuged (˜4000 rpm) for 15 minutes.

[11] = target: T2, 5-HT7 (Homo sapiens, UniProt P34969); experiment: NIMH PDSP radioligand binding, 5-HT7; conditions: read-out: Radioligand binding in 10 μM compound (% control)
T2 construct: NIMH PDSP (assay provider)
Description: as §1, §2, §3

[12] = target: T3, D2 (Homo sapiens, UniProt P14416); experiment: NIMH PDSP radioligand binding, D2; conditions: read-out: Radioligand binding in 10 μM compound (% control)
T3 construct: NIMH PDSP (assay provider)
Description: as §1, §2, §3

[13] = target: T4, D5 (Homo sapiens, UniProt P21918); experiment: NIMH PDSP radioligand binding, D5; conditions: for remaining activity at 10 µM: read-out: Radioligand binding in 10 μM compound (% control)
T4 construct: NIMH PDSP (assay provider)
Description: as §1, §2, §3

[14] = target: translocator protein (peripheral benzodiazepine site) (Homo sapiens, UniProt P30536); experiment: NIMH PDSP radioligand binding, translocator protein; conditions: read-out: Radioligand binding in 10 μM compound (% control)
Description: as §1, §2, §3

[15] = target: M3 (Homo sapiens, UniProt P20309); experiment: NIMH PDSP radioligand binding, M3; conditions: read-out: Radioligand binding in 10 μM compound (% control)
Description: as §1, §2, §3

[16] = target: T5, GluA1 (Homo sapiens, UniProt P42261); experiment: Off-target two-electrode voltage clamp assay, GluA1; assay type: cell-based; conditions: 10 μM, mean ± SEM
T5 construct: expressed in transfected cells
Description: as §1

[17] = target: σ2 (Homo sapiens, UniProt Q5BJF2); experiment: NIMH PDSP radioligand binding, σ2; conditions: for remaining activity at 10 µM: read-out: Radioligand binding in 10 μM compound (% control); for Ki: read-out: pKi values from non-linear regression of radioligand competition binding isotherms (converted)
Description: as §1, §2, §3

[18] = target: μ-opioid receptor (Homo sapiens, UniProt P35372); experiment: NIMH PDSP radioligand binding, μ-opioid receptor; conditions: read-out: Radioligand binding in 10 μM compound (% control)
Description: as §1, §2, §3

[19] = target: σ1 (Homo sapiens, UniProt Q99720); experiment: NIMH PDSP radioligand binding, σ1; conditions: read-out: Radioligand binding in 10 μM compound (% control)
Description: as §1, §2, §3

[20] = Brain IP 10 mg/kg fed, read-out: Cmax
[21] = Brain IP 10 mg/kg fed, read-out: Cmax (ng/g)
[22] = Plasma IP 10 mg/kg fed, read-out: Cmax
[23] = Plasma IP 10 mg/kg fed, read-out: Cmax (ng/mL)

T4 sequence (P21918 whole entry): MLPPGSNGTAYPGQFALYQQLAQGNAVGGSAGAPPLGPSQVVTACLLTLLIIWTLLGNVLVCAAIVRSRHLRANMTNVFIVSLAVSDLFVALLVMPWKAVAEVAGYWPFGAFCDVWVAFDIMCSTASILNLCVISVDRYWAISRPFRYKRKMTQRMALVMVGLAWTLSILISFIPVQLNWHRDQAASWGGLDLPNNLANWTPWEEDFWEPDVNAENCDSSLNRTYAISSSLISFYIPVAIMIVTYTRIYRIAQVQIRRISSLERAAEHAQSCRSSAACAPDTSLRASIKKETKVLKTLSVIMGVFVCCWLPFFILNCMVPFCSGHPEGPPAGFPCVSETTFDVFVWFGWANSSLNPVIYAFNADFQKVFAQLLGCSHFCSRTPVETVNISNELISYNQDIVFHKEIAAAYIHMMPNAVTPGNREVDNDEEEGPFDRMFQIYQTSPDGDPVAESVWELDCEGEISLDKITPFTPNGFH
Sequence of σ2 (Q5BJF2 whole entry): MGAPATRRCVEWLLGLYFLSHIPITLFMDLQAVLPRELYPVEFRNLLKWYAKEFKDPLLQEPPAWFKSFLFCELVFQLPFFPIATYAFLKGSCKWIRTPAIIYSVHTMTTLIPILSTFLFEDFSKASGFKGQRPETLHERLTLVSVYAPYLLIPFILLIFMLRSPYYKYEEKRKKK
Sequence of translocator protein (peripheral benzodiazepine site) (P30536 whole entry, species assumed): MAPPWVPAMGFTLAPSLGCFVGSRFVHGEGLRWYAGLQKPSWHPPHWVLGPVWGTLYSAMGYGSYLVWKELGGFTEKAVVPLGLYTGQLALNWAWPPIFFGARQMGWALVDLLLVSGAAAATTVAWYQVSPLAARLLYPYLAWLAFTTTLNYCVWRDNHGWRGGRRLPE
Sequence of σ1 (Q99720 whole entry): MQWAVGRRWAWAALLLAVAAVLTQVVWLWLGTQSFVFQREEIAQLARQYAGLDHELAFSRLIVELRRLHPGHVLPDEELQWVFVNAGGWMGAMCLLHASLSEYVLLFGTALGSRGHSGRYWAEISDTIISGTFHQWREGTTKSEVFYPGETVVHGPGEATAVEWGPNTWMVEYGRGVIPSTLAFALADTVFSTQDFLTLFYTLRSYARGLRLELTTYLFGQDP
Sequence of serotonin transporter (P31645 whole entry): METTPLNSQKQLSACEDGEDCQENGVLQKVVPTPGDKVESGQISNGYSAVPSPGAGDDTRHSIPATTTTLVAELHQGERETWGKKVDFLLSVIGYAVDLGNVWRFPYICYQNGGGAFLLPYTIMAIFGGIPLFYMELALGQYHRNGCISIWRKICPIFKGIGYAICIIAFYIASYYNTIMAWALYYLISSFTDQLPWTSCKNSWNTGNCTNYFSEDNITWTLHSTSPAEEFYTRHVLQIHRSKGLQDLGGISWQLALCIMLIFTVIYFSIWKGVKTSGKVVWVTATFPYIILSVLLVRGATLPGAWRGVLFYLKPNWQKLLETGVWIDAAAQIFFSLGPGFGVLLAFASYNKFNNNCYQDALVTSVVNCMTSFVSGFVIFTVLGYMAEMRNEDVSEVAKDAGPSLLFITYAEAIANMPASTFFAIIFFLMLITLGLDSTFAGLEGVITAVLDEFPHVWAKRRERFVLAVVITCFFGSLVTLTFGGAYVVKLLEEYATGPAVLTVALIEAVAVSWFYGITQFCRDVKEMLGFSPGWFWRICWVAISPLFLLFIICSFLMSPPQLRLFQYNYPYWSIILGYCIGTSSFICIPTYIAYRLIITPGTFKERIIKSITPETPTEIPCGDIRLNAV
Sequence of M3 (P20309 whole entry): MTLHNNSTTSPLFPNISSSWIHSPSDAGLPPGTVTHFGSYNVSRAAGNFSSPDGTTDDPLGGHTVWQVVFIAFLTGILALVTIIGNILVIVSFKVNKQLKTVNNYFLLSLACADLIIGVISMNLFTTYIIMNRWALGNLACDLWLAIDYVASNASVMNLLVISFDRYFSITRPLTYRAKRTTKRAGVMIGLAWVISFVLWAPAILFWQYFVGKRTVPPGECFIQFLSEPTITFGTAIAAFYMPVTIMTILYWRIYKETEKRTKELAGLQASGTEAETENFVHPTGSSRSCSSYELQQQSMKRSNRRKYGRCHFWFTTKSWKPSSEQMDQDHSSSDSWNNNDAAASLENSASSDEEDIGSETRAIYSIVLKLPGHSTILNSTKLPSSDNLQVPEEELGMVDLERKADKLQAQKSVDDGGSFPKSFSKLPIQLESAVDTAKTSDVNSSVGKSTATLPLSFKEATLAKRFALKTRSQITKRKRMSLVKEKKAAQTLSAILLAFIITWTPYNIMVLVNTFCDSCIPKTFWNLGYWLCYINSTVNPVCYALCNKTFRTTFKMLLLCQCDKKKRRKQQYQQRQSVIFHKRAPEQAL
T5 sequence (P42261 19-906, species assumed): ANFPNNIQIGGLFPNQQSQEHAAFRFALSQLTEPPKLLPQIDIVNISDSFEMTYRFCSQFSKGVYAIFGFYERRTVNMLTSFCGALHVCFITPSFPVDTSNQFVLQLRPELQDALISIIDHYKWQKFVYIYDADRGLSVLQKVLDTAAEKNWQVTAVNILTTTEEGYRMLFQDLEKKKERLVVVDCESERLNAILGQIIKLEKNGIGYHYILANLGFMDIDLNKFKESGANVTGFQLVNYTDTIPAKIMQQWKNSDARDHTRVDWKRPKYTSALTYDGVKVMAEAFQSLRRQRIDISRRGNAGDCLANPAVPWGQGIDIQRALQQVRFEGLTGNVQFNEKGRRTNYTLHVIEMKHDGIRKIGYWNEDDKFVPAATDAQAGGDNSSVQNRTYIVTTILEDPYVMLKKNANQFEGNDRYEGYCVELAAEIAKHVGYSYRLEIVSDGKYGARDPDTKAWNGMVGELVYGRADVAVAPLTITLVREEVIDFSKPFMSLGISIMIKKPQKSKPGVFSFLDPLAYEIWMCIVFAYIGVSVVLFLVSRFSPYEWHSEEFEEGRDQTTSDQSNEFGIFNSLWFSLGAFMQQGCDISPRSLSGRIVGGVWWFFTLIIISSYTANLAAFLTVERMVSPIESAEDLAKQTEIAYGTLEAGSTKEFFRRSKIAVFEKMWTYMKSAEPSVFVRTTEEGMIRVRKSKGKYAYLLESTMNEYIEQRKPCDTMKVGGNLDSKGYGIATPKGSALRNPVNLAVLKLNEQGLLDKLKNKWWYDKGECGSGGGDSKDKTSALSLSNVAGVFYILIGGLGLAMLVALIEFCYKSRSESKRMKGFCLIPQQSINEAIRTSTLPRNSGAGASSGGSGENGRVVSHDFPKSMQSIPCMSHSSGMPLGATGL
Sequence of δ-opioid receptor (P41143 whole entry): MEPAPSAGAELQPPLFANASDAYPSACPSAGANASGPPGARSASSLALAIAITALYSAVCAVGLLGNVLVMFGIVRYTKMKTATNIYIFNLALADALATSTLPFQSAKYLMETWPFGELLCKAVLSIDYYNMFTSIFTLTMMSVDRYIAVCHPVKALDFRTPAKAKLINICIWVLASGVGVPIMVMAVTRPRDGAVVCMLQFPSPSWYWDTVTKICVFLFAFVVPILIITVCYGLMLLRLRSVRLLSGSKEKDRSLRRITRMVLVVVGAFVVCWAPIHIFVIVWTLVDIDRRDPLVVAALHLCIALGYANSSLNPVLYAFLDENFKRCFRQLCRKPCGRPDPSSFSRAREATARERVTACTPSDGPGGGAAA
Sequence of μ-opioid receptor (P35372 whole entry, species assumed): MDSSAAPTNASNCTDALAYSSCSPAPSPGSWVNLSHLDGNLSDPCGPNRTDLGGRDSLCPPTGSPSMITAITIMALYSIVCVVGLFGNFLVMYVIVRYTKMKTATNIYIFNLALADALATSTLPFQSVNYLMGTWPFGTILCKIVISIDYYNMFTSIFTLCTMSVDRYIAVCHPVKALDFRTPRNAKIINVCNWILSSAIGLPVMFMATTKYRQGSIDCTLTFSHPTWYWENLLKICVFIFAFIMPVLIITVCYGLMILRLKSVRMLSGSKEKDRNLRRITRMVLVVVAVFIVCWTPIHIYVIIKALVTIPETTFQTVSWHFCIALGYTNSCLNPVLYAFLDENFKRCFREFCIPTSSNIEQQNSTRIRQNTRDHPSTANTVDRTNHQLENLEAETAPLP
Sequence of dopamine transporter (Q01959 whole entry): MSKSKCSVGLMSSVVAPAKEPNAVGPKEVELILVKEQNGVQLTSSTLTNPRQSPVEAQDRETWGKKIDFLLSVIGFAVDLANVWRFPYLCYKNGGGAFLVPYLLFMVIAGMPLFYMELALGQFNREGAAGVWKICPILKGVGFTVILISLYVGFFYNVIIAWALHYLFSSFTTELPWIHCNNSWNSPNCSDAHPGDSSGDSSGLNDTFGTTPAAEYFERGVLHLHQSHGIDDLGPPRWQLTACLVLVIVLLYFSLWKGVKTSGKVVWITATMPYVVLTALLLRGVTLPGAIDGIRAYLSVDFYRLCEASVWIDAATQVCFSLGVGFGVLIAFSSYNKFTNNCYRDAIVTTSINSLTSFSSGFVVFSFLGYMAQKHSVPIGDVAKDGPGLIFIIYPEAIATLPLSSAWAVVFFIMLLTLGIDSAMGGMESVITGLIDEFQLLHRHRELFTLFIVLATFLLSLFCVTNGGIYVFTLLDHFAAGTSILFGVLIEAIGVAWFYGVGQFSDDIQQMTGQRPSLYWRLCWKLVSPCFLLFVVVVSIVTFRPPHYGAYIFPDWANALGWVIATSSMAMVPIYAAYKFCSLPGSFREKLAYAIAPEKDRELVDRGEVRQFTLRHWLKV

| Compound | remaining activity at 10 µM [1] | remaining activity at 10 µM [2] | remaining activity at 10 µM [5] | remaining activity at 10 µM [6] | remaining activity at 10 µM [7] | % control response [8] | remaining activity at 10 µM [9] | AUC % Extrapolation ([10]; Brain IP 10 mg/kg fed) | AUCINF ([10]; Brain IP 10 mg/kg fed) | AUCLAST ([10]; Brain IP 10 mg/kg fed) | t½terminal ([10]; Brain IP 10 mg/kg fed) | max brain concentration [10] | AUC % Extrapolation ([10]; Plasma IP 10 mg/kg fed) | t½terminal ([10]; Plasma IP 10 mg/kg fed) | Kp [10] | half-life [10] | Tmax ([10]; Brain IP 10 mg/kg fed) | Cmax [10, 20] | Cmax [10, 21] | AUC(0-inf) ([10]; Plasma IP 10 mg/kg fed) | also measured |
| --- | --- | --- | --- | --- | --- | --- | --- | --- | --- | --- | --- | --- | --- | --- | --- | --- | --- | --- | --- | --- | --- |
| COc1ccc(OCC2c3cccn3CCN2C(=O)c2cccc(Cl)c2)cc1 (stereo not shown) [1180-420, (3-Chlorophenyl)(1-((4-methoxyphenoxy)methyl)-3,4-dihydropyrrolo[1,2-a]pyrazin-2(1H)-yl)methanone] | 86% | 99% | 75% | 89% | 98% | 81.4 ± 8.5 % control response | 91% | 7% | 1413 ng·h/g | 1315 ng·h/g | 66 min | 4 µM | 8% | 66 min | 2 | > 60 min | 18 min | 3500 nM | 1410 ng/g | 856 ng·h/mL | GluN2D Max % ([3]; maximal response, current without potentiator = 100%): 374%; EC50 ([4]; read-out: GluN2D EC50): 2.3 µM; AUC(0-t) ([10]; Plasma IP 10 mg/kg fed): 792 ng·h/mL; Tmax ([10]; Plasma IP 10 mg/kg fed): 18 min; Cmax [10, 22]: 2100 nM; Cmax [10, 23]: 841 ng/mL; remaining activity at 10 µM [11]: 115%; remaining activity at 10 µM [12]: 87%; remaining activity at 10 µM [13]: 37%; Ki ([13]; read-out: pKi values from non-linear regression of radioligand competition binding isotherms (converted)): 1.26 µM; remaining activity at 10 µM [14]: 67%; remaining activity at 10 µM [15]: 69%; % control response [16]: 98.9 ± 13.7 % control response; remaining activity at 10 µM [17]: 48%; Ki [17]: 1.58 µM; remaining activity at 10 µM [18]: 104%; remaining activity at 10 µM [19]: 76% |
| COc1ccc(OCC2c3cccn3CC(=O)N2Cc2cccc(C(F)(F)F)c2)cc1 (racemic) [1180-447, 1-((4-Methoxyphenoxy)methyl)-2-(3-(trifluoromethyl)benzyl)-1,2-dihydropyrrolo[1,2-a]pyrazin-3(4H)-one] | 91% | 79% | 70% | 93% | 76% | 81.7 ± 7.5 % control response | 97% | 9% | 1836 ng·h/g | 1670 ng·h/g | 72 min | 4 µM | 6% | 60 min | 2 | > 60 min | 30 min | 3900 nM | 1670 ng/g | 760 ng·h/mL | GluN2D (max) (%) [3]: (396) %; EC50 ([4]; read-out: GluN2D pEC50 [95% CI] (converted)): 1.58 µM; AUC(0-t) ([10]; Plasma IP 10 mg/kg fed): 715 ng·h/mL; Tmax ([10]; Plasma IP 10 mg/kg fed): 18 min; Cmax [10, 22]: 1500 nM; Cmax [10, 23]: 635 ng/mL; remaining activity at 10 µM [11]: 83%; remaining activity at 10 µM [12]: 101%; remaining activity at 10 µM [13]: 67%; remaining activity at 10 µM [14]: 84%; remaining activity at 10 µM [15]: 87%; % control response [16]: 96.8 ± 13.3 % control response; remaining activity at 10 µM [17]: 32%; Ki [17]: 1.58 µM; remaining activity at 10 µM [18]: 99%; remaining activity at 10 µM [19]: 76% |
